Source: paper PMC6645248 (ACS Omega, 2018)

Experiments:
Cyt c = Cyt c (Equus caballus, UniProt P00004); format: biochemical, equine; conditions: for concentration at which an effect on the Cyt c-catalysed reaction starts: [Cyt c] = 15 μg/mL
[1] = biological target: T1, horseradish peroxidase (HRP) (Armoracia rusticana, UniProt P00433); assay: Peroxide-induced inhibition; format: biochemical; conditions: [LH-] = 750 μM; [HRP] = 2 μg/mL; pH 9
T1 sequence (P00433 31-338 limits assumed): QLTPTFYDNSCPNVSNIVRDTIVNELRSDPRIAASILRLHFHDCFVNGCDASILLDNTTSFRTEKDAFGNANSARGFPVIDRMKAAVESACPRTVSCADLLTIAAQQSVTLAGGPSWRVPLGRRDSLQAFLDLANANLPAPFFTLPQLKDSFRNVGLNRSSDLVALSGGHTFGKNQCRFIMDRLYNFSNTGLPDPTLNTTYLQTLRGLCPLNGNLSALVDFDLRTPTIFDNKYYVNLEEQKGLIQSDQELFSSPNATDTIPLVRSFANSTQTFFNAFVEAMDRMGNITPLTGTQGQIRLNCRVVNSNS

HRP [2] = biological target: T2, HRP (Armoracia rusticana, UniProt P00433); conditions: [H2O2] of 17.6 mM; cited from earlier work
T2 sequence (P00433 31-338 limits assumed): T1 sequence (P00433 31-338 limits assumed)

HRP [3] = biological target: T2, HRP; assay: Enhancement of the HRP-catalysed luminol reaction by aromatic hydrogen donors; format: biochemical, horseradish; conditions: [H2O2] = 1.1 mM; [LH-] = 750 μM; pH 9
[4] = [LH-] = 750 μM, [H2O2] = 1.1 mM, pH 9

Chain of Cyt c (P00004 whole entry): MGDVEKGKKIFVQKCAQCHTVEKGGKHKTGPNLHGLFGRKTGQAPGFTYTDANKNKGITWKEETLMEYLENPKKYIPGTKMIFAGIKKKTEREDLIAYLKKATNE

IC50 (Cyt c) [µM]	concentration at which an effect on the Cyt c-catalysed reaction starts (Cyt c; [4])	kind of quenching of Cyt c-catalysed luminescence (kinetics) (Cyt c; [Cyt c] = 20 μg/mL, [LH-] = 750 μM, [H2O2] = 1.1 mM, pH 9)	Structure (SMILES)	protection of HRP against high [H2O2] (shift of peroxide inhibition) [1]	concentration for maximal enhancement (HRP [2]) [mM]	concentration for maximal enhancement of the HRP-catalysed reaction (HRP [3])
41	about 10 μM		N[C@@H](CCC(=O)N[C@@H](CS)C(=O)NCC(=O)O)C(=O)O [GSH, glutathione]	does not exert a protective effect on HRP		
			Oc1ccc(I)cc1 [IP, iodophenol]		4	around 200 μM
	80 µM	permanent luminescence quenching	NC(=O)C1=CN([C@@H]2O[C@H](COP(=O)([O-])OP(=O)([O-])OC[C@H]3O[C@@H](n4cnc5c(N)ncnc54)[C@H](O)[C@@H]3O)[C@@H](O)[C@H]2O)C=CC1.[Na+].[Na+] [NADH, Nicotinamide–adenine–dinucleotide disodium]			
